Active and inactive are the calls of the source.
Columns and labels:
[1] = inhibitors of PGC1a acetylation in cells, dose response, cell-based, cherry-picked samples (AID 720514); assay type: functional;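 further: potency may reflect raised or lowered acetylation signal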
[2] = Late-stage results from the probe development effort to identify antagonists of arginine vasopressin receptor 1a (AVPR1a): fluorescence-based cell-based dose response AVPR1a inhibition assay.; assay type: functional
Vasopressin V2 receptor = Vasopressin V2 receptor (Homo sapiens, UniProt P30518); assay: Late-stage results from the probe development effort to identify antagonists of arginine vasopressin receptor 1a (AVPR1a): fluorescence-based cell-based dose response AVPR2 inhibition counterscreen assay.; assay type: functional
Vasopressin V1b receptor = Vasopressin V1b receptor (Homo sapiens, UniProt P47901); assay: Late-stage results from the probe development effort to identify antagonists of arginine vasopressin receptor 1a (AVPR1a): fluorescence-based cell-based dose response AVPR1b inhibition counterscreen assay.; assay type: functional
[3] = Late-stage results from the probe development effort to identify antagonists of arginine vasopressin receptor 1a (AVPR1a): fluorescence-based cell-based dose response OXTR inhibition counterscreen assay.; assay type: functional
[4] = A549 cell cytotoxicity, dose response, cytotoxicity control, 24 h, CellTiter-Glo luminescence, cherry-picks (AID 1053115); assay type: functional, cell-based; conditions: A549, 24 h
[5] = target: RNA-editing ligase 1, mitochondrial (Trypanosoma brucei brucei, UniProt P86926); assay: TbREL1 ligase inhibitors, dose response, biochemical, fluorescence, Trypanosoma brucei (AID 1117295); assay type: functional
[6] = P. falciparum Dd2 growth inhibitors, dose response, SYBR Green, dry powder samples (AID 1159566); assay type: functional, cell-based;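 further: potency for growth inhibition with lower SYBR green DNA signal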
[7] = P. falciparum ATP4 D1247Y mutant growth inhibitors, dose response, NITD609-resistant line, SYBR Green, dry powder (AID 1159571); assay type: functional, cell-based;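 further: parasites synchronized at ring stage by sorbitol before testing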
[8] = HepG2 cell cytotoxicity, dose response, cytotoxicity control, plate reader, dry powder samples (AID 1159569); assay type: functional, cell-based;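 further: inhibitor potency with signal falling toward the positive control level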
[9] = P. falciparum 3D7-ScDHODH growth inhibitors, dose response, SYBR Green, dry powder samples (AID 1159570); assay type: functional, cell-based;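 further: parasite growth measured after 72 hours of compound exposure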
[10] = P. falciparum Dd2 growth inhibitors, dose response, SYBR Green, cherry-picked samples (AID 1159567); assay type: functional, cell-based
[11] = Plasmodium falciparum Dd2 Sybr green parasite growth Measured in Cell-Based and Microorganism Combination System Using Plate Reader - 2153-01_Inhibitor_Dose_DryPowder_Activity_Set3.; assay type: functional

Chain of RNA-editing ligase 1, mitochondrial (P86926 whole entry): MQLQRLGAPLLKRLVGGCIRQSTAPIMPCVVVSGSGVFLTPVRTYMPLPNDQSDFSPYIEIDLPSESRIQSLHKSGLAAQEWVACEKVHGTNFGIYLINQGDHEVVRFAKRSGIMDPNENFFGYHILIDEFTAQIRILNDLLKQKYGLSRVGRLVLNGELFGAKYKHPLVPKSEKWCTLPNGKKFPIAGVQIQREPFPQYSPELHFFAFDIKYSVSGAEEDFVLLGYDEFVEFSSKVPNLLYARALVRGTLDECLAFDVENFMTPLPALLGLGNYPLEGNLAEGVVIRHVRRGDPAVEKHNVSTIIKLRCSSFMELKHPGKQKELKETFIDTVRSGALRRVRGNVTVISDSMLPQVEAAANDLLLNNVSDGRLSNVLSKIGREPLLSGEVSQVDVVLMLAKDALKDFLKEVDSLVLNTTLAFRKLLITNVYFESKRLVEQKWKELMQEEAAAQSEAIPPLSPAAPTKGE
Chain of Vasopressin V2 receptor (P30518 whole entry): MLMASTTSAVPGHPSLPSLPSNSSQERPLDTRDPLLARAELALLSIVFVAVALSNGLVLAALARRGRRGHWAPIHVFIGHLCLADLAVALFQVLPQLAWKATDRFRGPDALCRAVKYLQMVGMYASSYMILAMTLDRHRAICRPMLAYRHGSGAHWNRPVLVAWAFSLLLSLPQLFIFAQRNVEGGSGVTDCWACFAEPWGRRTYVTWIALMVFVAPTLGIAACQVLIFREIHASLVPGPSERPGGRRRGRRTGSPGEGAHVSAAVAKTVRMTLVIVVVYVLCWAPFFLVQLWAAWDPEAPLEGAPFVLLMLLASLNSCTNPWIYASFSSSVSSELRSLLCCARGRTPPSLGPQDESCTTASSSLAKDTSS
Chain of Vasopressin V1b receptor (P47901 whole entry): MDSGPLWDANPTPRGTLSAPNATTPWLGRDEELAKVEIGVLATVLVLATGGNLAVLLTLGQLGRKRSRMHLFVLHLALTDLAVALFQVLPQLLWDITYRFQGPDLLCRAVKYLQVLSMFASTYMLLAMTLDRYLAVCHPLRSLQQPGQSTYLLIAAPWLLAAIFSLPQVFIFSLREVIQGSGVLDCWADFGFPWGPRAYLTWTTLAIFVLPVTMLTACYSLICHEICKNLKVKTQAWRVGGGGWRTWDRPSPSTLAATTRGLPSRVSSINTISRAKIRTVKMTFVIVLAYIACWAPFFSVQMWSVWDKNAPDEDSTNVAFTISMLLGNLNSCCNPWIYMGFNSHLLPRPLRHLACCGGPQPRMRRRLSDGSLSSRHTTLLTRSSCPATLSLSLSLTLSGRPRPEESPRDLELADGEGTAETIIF

SMILES: CCOc1ccc(N2C(=O)Cc3ccccc3C2=O)cc1
- AC50 [1]: 32.7 µM (active)

SMILES: O=C(C1CCN(c2ncccc2C(F)(F)F)CC1)N(CC1CC1)c1ccc(Cl)cc1
- IC50 [2]: 0.084 µM (active)
- IC50 (Vasopressin V2 receptor): 5.91 µM (active)
- IC50 (Vasopressin V1b receptor): 5.93 µM (active)
- IC50 [3]: 0.8 µM (active)

SMILES: COc1ccccc1CN1CC[C@@H]2[C@H]1c1cc(C#Cc3ccccc3)ccc1N[C@@H]2CO
- AC50 [4]: 46.8 µM (active)

SMILES: COC(=O)C1=C(C)N(Cc2ccccc2C(F)(F)F)C(NCc2ccc(C(F)(F)F)cc2)=NC1c1cccc(F)c1 (stereo not drawn)
- IC50 [5]: > 96.6 µM (inactive)

SMILES: N#C[C@@H]1[C@H](c2ccc(C3=CCCC3)cc2)[C@@H](CO)N1C(=O)NC1CCCC1
- AC50 [6]: 0.395 µM (active)
- AC50 [7]: 0.694 µM (active)
- AC50 [8]: 82 µM (active)
- AC50 [9]: 15.8 µM (active)
- AC50 [10]: 0.615 µM (active)
- AC50 [11]: 0.647 µM (active)
